Series [1] deals with Platelet-derived growth factor receptor beta (Homo sapiens, UniProt P09619). As to the kind of experiment: Inhibition of wild type partial length human PDGFRbeta (V582 to Y1009 residues) expressed in bacterial expression system using Ulight-p70S6K peptide substrate incubated for 90 mins in presence of ATP by HTRF assay.
Series [2] addresses Mast/stem cell growth factor receptor Kit (Homo sapiens, UniProt P10721). As to the kind of experiment: Inhibition of wild type partial length human KIT (I571 to D952 residues) expressed in bacterial expression system using Ulight-p70S6K peptide substrate incubated for 90 mins in presence of ATP by HTRF assay. (Time-resolved FRET reads energy transfer from a long-lived donor to a nearby acceptor.)

The target in series [3] is High affinity nerve growth factor receptor (Homo sapiens, UniProt P04629). As to the kind of experiment: Inhibition of wild type partial length human TRKA (G475 to G790 residues) expressed in mammalian expression system using Ulight-p70S6K peptide substrate incubated for 90 mins in presence of ATP by HTRF assay.
High affinity nerve growth factor receptor, sequence (P04629 whole entry, the tested form may be a part): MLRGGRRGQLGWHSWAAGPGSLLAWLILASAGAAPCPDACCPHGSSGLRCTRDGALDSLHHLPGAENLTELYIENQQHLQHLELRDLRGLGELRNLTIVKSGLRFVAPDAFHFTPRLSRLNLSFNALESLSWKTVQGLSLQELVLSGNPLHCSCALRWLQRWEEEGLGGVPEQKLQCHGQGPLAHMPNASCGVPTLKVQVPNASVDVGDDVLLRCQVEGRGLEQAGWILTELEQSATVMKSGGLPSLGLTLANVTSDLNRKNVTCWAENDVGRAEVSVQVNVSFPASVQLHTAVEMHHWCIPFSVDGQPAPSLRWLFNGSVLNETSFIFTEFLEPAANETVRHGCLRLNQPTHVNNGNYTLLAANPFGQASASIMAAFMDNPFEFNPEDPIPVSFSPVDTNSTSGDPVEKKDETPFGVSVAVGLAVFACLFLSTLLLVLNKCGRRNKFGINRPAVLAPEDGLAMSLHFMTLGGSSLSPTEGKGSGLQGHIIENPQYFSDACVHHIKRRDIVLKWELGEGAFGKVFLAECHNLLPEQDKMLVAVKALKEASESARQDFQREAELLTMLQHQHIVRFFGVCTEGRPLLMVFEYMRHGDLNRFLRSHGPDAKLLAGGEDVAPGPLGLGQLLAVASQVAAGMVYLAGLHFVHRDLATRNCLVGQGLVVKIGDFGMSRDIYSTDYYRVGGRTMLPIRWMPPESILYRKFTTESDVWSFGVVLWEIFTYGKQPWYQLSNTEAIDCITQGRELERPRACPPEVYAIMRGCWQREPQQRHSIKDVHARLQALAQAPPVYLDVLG
A short description of series [4]: Apparent permeability in human Caco-2 cells at 50 uM incubated for 120 mins by LC-MS/MS analysis. The series is classed as ADME, cell-based. For orientation: Caco-2 monolayers are a common model of the intestinal barrier.
For a further series, the target named is Cytochrome P450 3A4 (Homo sapiens, UniProt P08684). The experiment in a line: Inhibition of human liver microsomes CYP3A4 using midazolam or testosterone as substrate in presence of NADPH regenerating system by LC-MS/MS analysis. Further details: species or system Microsome. Background: Liver microsomes are a subcellular fraction often used to study metabolism.
Cytochrome P450 3A4, sequence (P08684 whole entry): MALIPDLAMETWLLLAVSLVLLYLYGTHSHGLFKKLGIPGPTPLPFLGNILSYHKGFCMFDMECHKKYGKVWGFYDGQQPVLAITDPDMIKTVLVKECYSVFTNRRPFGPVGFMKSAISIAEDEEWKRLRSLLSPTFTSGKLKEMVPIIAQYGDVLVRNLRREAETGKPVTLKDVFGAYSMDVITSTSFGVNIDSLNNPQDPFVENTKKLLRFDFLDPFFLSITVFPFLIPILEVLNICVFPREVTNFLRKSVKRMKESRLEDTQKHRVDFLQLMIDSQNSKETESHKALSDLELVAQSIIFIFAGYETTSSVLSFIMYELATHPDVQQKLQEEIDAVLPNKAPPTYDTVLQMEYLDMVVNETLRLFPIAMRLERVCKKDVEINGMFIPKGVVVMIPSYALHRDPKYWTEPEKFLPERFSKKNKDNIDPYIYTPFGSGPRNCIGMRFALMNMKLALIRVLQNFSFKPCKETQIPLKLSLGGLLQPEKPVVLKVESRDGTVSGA

Series [5] deals with Fibroblast growth factor receptor 2 (Homo sapiens, UniProt P21802). As to the kind of experiment: Inhibition of N-terminal GST tagged recombinant human FGFR2 (400 to 821 residues) expressed in an Sf9 infected baculovirus expression system using biotin-EQEDEPEGDYFEWLE-amide as substrate preincubated for 5 to 10 mins followed by substrate addition and measured after 1 hr by HTRF assay.
Fibroblast growth factor receptor 2, sequence (P21802 whole entry, the tested form may be a part): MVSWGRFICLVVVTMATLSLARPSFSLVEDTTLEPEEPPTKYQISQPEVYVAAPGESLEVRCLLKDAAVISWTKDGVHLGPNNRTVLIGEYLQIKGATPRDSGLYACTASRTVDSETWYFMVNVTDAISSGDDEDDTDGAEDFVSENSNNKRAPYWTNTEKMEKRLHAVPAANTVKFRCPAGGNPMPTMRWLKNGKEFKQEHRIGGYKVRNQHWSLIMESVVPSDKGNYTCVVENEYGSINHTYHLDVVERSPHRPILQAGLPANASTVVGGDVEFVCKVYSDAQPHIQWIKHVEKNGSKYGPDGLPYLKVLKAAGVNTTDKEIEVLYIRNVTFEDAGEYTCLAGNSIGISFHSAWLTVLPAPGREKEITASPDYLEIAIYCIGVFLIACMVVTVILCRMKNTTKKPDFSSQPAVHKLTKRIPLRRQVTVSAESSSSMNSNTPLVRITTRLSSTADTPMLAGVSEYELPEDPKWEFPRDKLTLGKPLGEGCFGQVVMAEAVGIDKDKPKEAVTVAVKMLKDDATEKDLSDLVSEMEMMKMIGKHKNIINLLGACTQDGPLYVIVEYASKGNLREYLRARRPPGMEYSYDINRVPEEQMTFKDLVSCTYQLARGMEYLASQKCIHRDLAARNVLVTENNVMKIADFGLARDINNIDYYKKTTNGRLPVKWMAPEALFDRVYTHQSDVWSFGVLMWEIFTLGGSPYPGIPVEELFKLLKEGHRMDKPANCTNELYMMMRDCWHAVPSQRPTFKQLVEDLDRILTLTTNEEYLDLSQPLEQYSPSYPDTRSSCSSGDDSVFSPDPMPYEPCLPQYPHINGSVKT

For the next series, the target named is CYP3A4 (Homo sapiens, UniProt P08684). As to the kind of experiment: Inhibition of human liver microsomes CYP3A4 at 5 uM using midazolam or testosterone as substrate in presence of NADPH regenerating system by LC-MS/MS analysis relative to control. It is filed as ADME, Microsome. Particulars: probe midazolam or testosterone.
CYP3A4, sequence (P08684 whole entry): as the sequence (P08684 whole entry) above
Series [6] can be described thus: Clearance in Sprague-Dawley rat assessed as hepatic blood flow at 0.73 mg/kg, iv measured upto 24 hrs by LC-MS/MS analysis. Particulars: in vivo. It is filed as ADME, organism-based.
Series [7] in a line: AUC in Sprague-Dawley rat at 3.1 mg/kg, po measured upto 24 hrs by LC-MS/MS analysis. Further details: time < 24 hrs, dose 3.1 mg/kg, route po. The series is classed as ADME, organism-based. Particulars: in vivo.
Series [8] is described as follows: Cmax in Sprague-Dawley rat at 3.1 mg/kg, po measured upto 24 hrs by LC-MS/MS analysis. The series is classed as ADME, organism-based. Particulars: in vivo. Further details: time < 24 hrs, dose 3.1 mg/kg, route po.
Series [9] can be described thus: Volume of distribution at steady state in Sprague-Dawley rat at 0.73 mg/kg, iv measured upto 24 hrs by LC-MS/MS analysis. Particulars: in vivo, read-out: Vdss. The series is classed as ADME, organism-based.
Series [10] can be described thus: Half life in Sprague-Dawley rat at 0.73 mg/kg, iv measured upto 24 hrs by LC-MS/MS analysis. It is filed as ADME, organism-based. Particulars: in vivo.
Series [11] is described as follows: Solubility of compound in SGF by HPLC assay. The series is classed as physicochemical.
A short description of series [12]: Solubility of compound in FaSSIF by HPLC assay. It is filed as physicochemical.
Series [13] can be described thus: Oral bioavailability in Sprague-Dawley rat at 3.1 mg/kg measured upto 24 hrs by LC-MS/MS analysis. Particulars: in vivo. It is filed as ADME, organism-based.
A further series relates to Mus musculus. As to the kind of experiment: In vivo inhibition of ERK phosphorylation in human UMUC14 cells xenografted with NSG mouse at 100 mg/kg, po measured after 2 hrs by MSD assay. It is filed as functional, organism-based.
Series [14] concerns the target Fibroblast growth factor receptor 4 (Homo sapiens, UniProt P22455). The experiment in a line: Inhibition of recombinant human FGFR4 (460 to 802 residues) using biotin-EQEDEPEGDYFEWLE-amide as substrate preincubated for 5 to 10 mins followed by substrate addition and measured after 1 hr by HTRF assay.

In brackets after ≈: the same amount, converted by molar mass. Activity calls are given as the source filed them. The calls are words filed in the database; no cut-off is given here. Where only a bound is given, the exact number is not on record here.

The IC50 is the midpoint of a concentration-inhibition curve. A word on the Papp: it is a coefficient for how fast a substance crosses the barrier. Usually inhibition stands for the percentage by which the read-out fell short of the control. Usually AUC stands for the area under the concentration-time curve, a measure of exposure. A lower AUC goes with less exposure. The Cmax is the maximum level reached in the sampled fluid or tissue. One may read the half-life as the time in which the quantity being followed falls by half. Usually solubility stands for the dissolved amount per volume that the medium holds. One may read the bioavailability as the share of a dose that reaches the circulation, judged against a reference dose that is usually intravenous. Read a high bioavailability as good availability.

Mast/stem cell growth factor receptor Kit, sequence (P10721 whole entry, the tested form may be a part): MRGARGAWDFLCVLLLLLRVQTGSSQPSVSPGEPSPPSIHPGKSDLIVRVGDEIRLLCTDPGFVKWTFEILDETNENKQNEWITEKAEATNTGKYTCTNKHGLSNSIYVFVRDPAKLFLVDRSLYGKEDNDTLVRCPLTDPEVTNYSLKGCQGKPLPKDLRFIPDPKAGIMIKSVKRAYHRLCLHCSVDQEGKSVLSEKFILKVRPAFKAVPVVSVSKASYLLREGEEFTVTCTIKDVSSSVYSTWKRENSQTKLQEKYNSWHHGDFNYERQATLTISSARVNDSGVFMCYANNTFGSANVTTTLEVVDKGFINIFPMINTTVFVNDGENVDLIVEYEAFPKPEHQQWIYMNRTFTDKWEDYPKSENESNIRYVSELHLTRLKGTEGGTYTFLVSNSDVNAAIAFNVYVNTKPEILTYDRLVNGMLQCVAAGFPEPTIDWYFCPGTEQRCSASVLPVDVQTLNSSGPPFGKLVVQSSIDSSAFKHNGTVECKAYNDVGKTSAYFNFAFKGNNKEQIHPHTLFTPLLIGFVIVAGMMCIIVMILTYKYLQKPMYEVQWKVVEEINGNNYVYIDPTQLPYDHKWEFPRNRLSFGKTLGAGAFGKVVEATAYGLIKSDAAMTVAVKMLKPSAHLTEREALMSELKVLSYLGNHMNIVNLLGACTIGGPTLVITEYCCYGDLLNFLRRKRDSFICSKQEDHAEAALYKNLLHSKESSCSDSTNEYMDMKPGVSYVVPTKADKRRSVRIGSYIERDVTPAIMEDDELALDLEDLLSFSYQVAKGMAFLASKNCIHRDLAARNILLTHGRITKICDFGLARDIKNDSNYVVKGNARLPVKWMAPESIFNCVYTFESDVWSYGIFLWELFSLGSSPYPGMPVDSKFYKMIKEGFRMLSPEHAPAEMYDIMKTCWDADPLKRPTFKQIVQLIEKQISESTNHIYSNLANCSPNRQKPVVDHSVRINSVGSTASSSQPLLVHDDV
Platelet-derived growth factor receptor beta, sequence (P09619 whole entry, the tested form may be a part): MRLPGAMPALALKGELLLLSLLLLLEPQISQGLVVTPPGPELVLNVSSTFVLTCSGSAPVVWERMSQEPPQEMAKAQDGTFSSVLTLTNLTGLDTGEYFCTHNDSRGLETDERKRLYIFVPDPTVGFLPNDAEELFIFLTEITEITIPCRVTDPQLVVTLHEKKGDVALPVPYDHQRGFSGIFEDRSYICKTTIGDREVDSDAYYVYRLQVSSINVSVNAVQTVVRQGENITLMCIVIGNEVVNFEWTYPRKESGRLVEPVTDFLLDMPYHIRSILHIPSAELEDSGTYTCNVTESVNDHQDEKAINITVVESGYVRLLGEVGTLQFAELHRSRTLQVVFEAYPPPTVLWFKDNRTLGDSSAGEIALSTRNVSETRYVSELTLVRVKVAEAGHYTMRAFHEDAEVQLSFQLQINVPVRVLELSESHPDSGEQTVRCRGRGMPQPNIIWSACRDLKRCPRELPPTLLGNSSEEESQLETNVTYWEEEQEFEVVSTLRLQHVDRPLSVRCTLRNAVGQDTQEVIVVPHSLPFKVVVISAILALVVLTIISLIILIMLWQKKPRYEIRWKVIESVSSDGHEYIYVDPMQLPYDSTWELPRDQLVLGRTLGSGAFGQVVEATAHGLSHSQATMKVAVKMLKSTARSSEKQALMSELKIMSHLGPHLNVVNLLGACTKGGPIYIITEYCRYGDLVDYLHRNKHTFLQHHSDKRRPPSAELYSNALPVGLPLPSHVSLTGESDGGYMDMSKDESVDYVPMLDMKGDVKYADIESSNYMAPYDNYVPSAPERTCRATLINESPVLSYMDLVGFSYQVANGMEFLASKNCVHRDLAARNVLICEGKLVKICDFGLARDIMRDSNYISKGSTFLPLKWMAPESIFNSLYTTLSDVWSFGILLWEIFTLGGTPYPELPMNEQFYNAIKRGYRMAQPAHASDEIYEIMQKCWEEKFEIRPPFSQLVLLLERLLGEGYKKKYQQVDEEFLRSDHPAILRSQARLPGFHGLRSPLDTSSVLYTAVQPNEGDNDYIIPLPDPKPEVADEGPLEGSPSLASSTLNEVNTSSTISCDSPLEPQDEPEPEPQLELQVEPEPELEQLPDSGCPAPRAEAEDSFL
Fibroblast growth factor receptor 4, sequence (P22455 whole entry, the tested form may be a part): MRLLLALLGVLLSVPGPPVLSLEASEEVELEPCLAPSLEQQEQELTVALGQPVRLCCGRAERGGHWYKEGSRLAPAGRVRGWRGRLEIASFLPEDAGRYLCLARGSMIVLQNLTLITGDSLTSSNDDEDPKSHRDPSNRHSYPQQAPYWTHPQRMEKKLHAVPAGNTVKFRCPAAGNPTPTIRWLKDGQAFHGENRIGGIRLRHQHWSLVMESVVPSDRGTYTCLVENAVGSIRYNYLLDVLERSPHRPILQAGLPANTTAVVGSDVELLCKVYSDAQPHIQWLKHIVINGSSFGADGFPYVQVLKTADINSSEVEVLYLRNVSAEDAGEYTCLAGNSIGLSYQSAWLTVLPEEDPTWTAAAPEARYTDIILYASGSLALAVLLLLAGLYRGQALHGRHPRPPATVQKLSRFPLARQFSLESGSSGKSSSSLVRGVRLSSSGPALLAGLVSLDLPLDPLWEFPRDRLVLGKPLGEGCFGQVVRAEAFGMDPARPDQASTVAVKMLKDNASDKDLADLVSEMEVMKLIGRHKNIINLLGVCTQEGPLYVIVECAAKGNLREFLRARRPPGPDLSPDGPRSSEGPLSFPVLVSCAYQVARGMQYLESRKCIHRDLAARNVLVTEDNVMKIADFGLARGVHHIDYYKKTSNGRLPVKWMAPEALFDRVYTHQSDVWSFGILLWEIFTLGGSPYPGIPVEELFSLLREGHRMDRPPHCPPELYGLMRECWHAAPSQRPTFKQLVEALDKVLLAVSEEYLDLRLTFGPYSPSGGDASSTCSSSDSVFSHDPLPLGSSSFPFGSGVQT

For the compound `CNC(=O)c1cc(C)c(F)c(-c2cnc3cc(-c4cnn(C)c4)c(O[C@H]4CCOC4)nn23)c1`, the IC50 is 1390 nM in series [1], 1660 nM in series [2] and 293 nM in series [3].
In the case of `CCNC(=O)c1cncc(-c2cnn3cc(-c4cnn(CC)c4)c(O[C@H]4CCOC4)nc23)c1`, the apparent permeability (Papp) at 2 h, 50 µM in series [4] worked out at 0.6 ×10⁻⁶ cm/s. Also, the IC50 on Cytochrome P450 3A4 was over 25000 nM.
For the compound `CNC(=O)c1cc(-c2cnc3cc(-c4cnn(C)c4)c(O[C@H]4CCOC4)nn23)c(F)c(C(F)F)c1`, the half-maximal inhibitory concentration (IC50) was 800 nM in series [1], 619 nM in series [2] and 443 nM in [3].
`[2H]C([2H])([2H])NC(=O)c1cncc(-c2cnn3cc(-c4ccn(C(C)C)n4)c(N[C@H]4CCOC4)nc23)c1`: the IC50 in series [5] came to 0.2 nM.
`CNC(=O)c1cncc(-c2cnn3cc(-c4cnn(C)c4)c(OC4CCOC4)nc23)c1` (racemic): in series [4], the apparent permeability (Papp) at 2 h, 50 µM amounted to 0.2 ×10⁻⁶ cm/s. Besides, the inhibition at 5 µM at CYP3A4 was 15%. The IC50 on Cytochrome P450 3A4 is over 5000 nM.
As to `CNC(=O)c1cccc(-c2cnc3cc(-c4cnn(C)c4)c(O[C@H]4CCOC4)nn23)c1`, the half-inhibitory concentration (IC50) in series [1] turned out to be 66 nM; in series [2] it was 82 nM; in [3], 118 nM.
Taken in the same sequence, the figures for `CNC(=O)c1cc(C)cc(-c2cnc3cc(-c4cnn(C(C)C)c4)c(O[C@H]4CCOC4)nn23)c1` were 126 nM, 22 nM and 363 nM.
As for `CNC(=O)c1cc(F)c(F)c(-c2cnc3cc(-c4cnn(C)c4)c(O[C@H]4CCOC4)nn23)c1`, the apparent permeability coefficient (Papp) at 2 h, 50 µM in [4] is 5.7 ×10⁻⁶ cm/s. Besides, the QH in [6] is recorded as 3.3%. This compound displayed an AUC at 24 h in [7] of 33.6 µM·h. The 50% inhibitory concentration (IC50) at Cytochrome P450 3A4 turned out to be 3900 nM; in series [1], 1740 nM; in [2] it was 1450 nM; in series [3], 285 nM. Moreover, the concentration in series [8] peaked (Cmax) at 6.17 µM. The Vd in series [9] came out at 0.35 L/kg. Further, the half-life in series [10] was 5.3 h. The solubility in series [11] was over 400 µg/mL; in [12] it was 118 µg/mL (≈ 260 µM). For the same compound, the bioavailability in [13] was found to be 54%.
Consider `CNC(=O)c1cccc(-c2cnc3cc(-c4cnn(C)c4)c(OC)nn23)c1`, for which the IC50 stood at 38 nM in series [1] and 58 nM in series [3].
Turning to `CNC(=O)c1cncc(-c2cnn3cc(-c4cnn(C(C)C)c4)c(O[C@H]4CCOC4)nc23)c1`, the apparent permeability (Papp) at 2 h, 50 µM in series [4] turned out to be 1.5 ×10⁻⁶ cm/s. For the same compound, the outcome with Mus musculus was Active. Besides, the half-maximal inhibitory concentration (IC50) on Cytochrome P450 3A4 came out at 9000 nM. Also, the figures for the solubility in series [11] and in series [12] were over 400 µg/mL and 17 µg/mL (≈ 38 µM), respectively.
On to `CNC(=O)c1ccc(F)c(-c2cnc3cc(-c4cnn(C)c4)c(OC)nn23)c1`, for which the concentration for half-maximal inhibition (IC50) in [1] was 348 nM; in series [2] it was 180 nM; in series [3] it was 11 nM.
Regarding `[2H]C([2H])([2H])NC(=O)c1cncc(-c2cnn3cc(-c4cnn(C(C)C)c4)c(O[C@H]4CCOC4)nc23)c1`, the Papp at 2 h, 50 µM in series [4] was 2 ×10⁻⁶ cm/s. The QH in series [6] is 35%. Moreover, the AUC at 24 h in series [7] was 5.11 µM·h. The values for the IC50 (on Cytochrome P450 3A4; in series [14]) were over 25000 nM and 145 nM, respectively. The compound further had a maximum concentration (Cmax) in series [8] of 2.3 µM. In addition, the Vd in series [9] was found to be 1.6 L/kg. Further, in series [10], the half-life was 1.7 h. Moreover, the results for the solubility in series [11] and in [12] were 679 µg/mL (≈ 1510 µM) and 18 µg/mL (≈ 40 µM), respectively. For the same compound, the bioavailability in series [13] was determined as 82%.
For the compound `CNC(=O)c1cncc(-c2cnc3cc(-c4cnn(C)c4)c(OC4CCOC4)nn23)c1` (configuration not stated), on CYP3A4, the inhibition at 5 µM was 0%. The IC50 is over 5000 nM at Cytochrome P450 3A4, 370 nM in series [1], 284 nM in [2] and 7300 nM in series [3].

The record behind these values is ChEMBL document CHEMBL5096240, “Discovery of Potent and Selective Inhibitors of Wild-Type and Gatekeeper Mutant Fibroblast Growth Factor Receptor (FGFR) 2/3” (J Med Chem, 2022).
